# According to US20040102606A1, “Histone H2A -derived peptides useful in gene delivery” (priority 2003, published 2004):
# Columns and labels:
# [1] = system: COS-7 cells; assay: Transfection assay (β-galactosidase reporter plasmid pCMVβ complexed with H2A-derived peptide); assay type: cell-based, African green monkey; details: for transfection activity (β-galactosidase production): peptide at equimolar ratio to peak conditions of peptide 1 (36-mer), also 2× and ½× molar, FIG. 1; for transfection activity (DNA delivery) at the 17-mer's own optimal concentration: much higher molar ratio than 36-mer
# Text: The transfection assay is based on an in vitro assay previously described by J. H. Felgner et al. (Feigner et al., Proc. Natl. Acad. Sci., USA, 84:7413-7417, […]) with the following modifications: COS-7 (African green monkey SV40-transformed kidney cells, American Type Culture Collection, Rockville, Md.) were maintained in Dulbecco's modified eagle's medium (Biowhittaker, Walkersville, Md.) supplemented with 10% heat inactivated fetal bovine serum (Gemini Bio-products Inc., Calabras, Calif.), […] glutamine (Gemini Bio-products Inc., Calabras, Calif.), and 100U Penicillin-100 μg Streptomycin (Gemini Bio-products Inc., Calabras, Calif.). Other cells useful for transfection are 3T3, CHO-K1, HEPG2 and the like cell lines. The cells were harvested with 0.05% Trypsin-0.53 mM EDTA4Na (Life Technologies, Gaithersburg, Md.), pelleted, resuspended in their usual culture medium, diluted in 0.85% NaCl (Sigma, St. Louis, Mo.), and counted in a Coulter Z1® apparatus (Coulter Corporation, Miami, Fla.). COS-7 cells were plated in 96-well flat bottom tissue culture treated polystyrene plates (Corning Inc., Corning, N.Y.) at a density of […] cells per well and grown overnight in a humidified incubator at 37° C. in the presence of 4% CO2. Culture medium was aspirated from the overnight cultures of COS-7 cells, and the cells were overlaid with 75 μl/well of the binary DNA-histone H2A-derived peptide complex, or the corresponding controls. Four hours after transfection, 37.5 μl of Opti-MEM®1, a Tris-Acetate-based (Life Technologies, Gaithersburg, Md.) containing 30% heat inactivated fetal bovine serum (Gemini Bio-products Inc., Celebres, Calif.) was added to each well. Twenty-four hours post-transfection […] of Opti-MEM®1 containing 10% heat inactivated fetal bovine serum (Gemini Bio-products Inc., Celebres, Calif.) was added to each well Forty-eight hours post-transfection, all of the medium in each well was removed. Fifty μl of lysis buffer (0.1% Triton X-100, […] Tris pH 8.0) was added to each well. The plates were then frozen at −70° C. and thawed once. Fifty μl of phosphate-buffered saline (PBS) pH 7.4 was added to each well except for the last column The last column was reserved for a β-galactosidase standard curve. […] In the presence of β-galactosidase, D-galactose is released from CPRG, yielding chlorophenol red; the red reaction product was used to quantitate the amount of β-galactosidase produced. […] The plates were read in a Thermomax plate reader (Molecular Devices Incorporated, Sunnyvale, Calif.) at 575 nm. The optical density values obtained in test wells were then compared to those in the column containing the β-galactosidase standard and the result was expressed as the quantity of β-galactosidase produced per well. […]
# [2] = system: COS-7 cells; assay: X-gal staining of transfected cells; assay type: cell-based, African green monkey
# Text: The difference between one of the effective peptides (amino acids 1-36) and the peptide composed of the first 25 amino acids is the inclusion of an α-helical motif located between amino acids 27-35.
# [3] = Circular dichroism; assay type: physicochemical; details: 70 μM in 120 mM Tris acetate pH 8; 200-260 nm
# Protocol: Circular dichroism experiments were performed using a Circular Dichroism Spectrometer (model 62DS) at wavelengths ranging from 200-260 nm In all cases, three readings were taken of a 300 μl sample of 70 μM histone H2A or 70 μM histone H2A-derived peptide in 120 mM Tris acetate pH 8. The average reading for every wavelength tested is plotted as a function of degrees of ellipticity.
# Circular dichroism of peptide was performed on four samples: the full length histone H2A molecule, peptide 1 (36-mer), peptide P1 (17-mer) and peptide 12.
# [4] = system: COS7 cells; details: polymers in equimolar ratios to their representation in histone H2A; cited from earlier work
Compound,transfection activity (β-galactosidase production) [1],transfection (β-galactosidase reporter plasmid) [4],further results
KTRSSRAGLQFPVGRVHRIIRK [Peptide 5R],significant activity,,
"P1: 17-mer that represents amino acids 18-34 of the histone H2A molecule (RSSRAGLQFPVGRVHRL; UniProt P0C0S8 18-34, looked up, fragment) [Peptide P1]",only background activity,,"transfection activity (DNA delivery) at the 17-mer's own optimal concentration ([1]; FIG. 2): effective in DNA transfection and delivery; transfection activity (DNA delivery) at the 17-mer's own optimal concentration ([1]; FIG. 2, listed as 17-mer): active in DNA delivery; COS-7 cells transfected (X-gal staining) [2]: less than 1%; circular dichroism, α-helical structure (minima at 208 and 222 nm) [3]: some degree of minima at around 208"
NCCCNCCCCNCCCN [spermine],,ineffective,
NCCCCNCCCN [spermidine],,ineffective,
